In the assay the test system is HT-29 cells. Kind of assay: HT29 cells 0FBS assay in vitro: TNF-α/SMAC mimetic/zVAD-FMK induced necroptosis, CellTiter-Glo cell viability (RIP1 inhibitory activity). Type of assay: cell-based. The conditions noted are these: Homo sapiens, FBS free medium, TNF-α (10 ng/ml) + SMAC mimetic (6 uM) + zVAD-FMK (10 μM), 20 hours, geometric mean EC50. The procedure, abridged: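 Luminescent ATP read-out (CellTiter-Glo) gave viability of HT-29 cells after 20 h at 37° C in serum-free medium containing compound and a necroptosis cocktail of 10 ng/ml TNF-α, 6 uM SMAC mimetic and 10 μM zVAD-FMK. EC50s are geometric means of 10-point curves run in duplicate.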
For `Cn1nccc1-c1ncc(F)c(OC2CN(C(=O)N3N=CC[C@H]3c3cc(F)cc(C#N)c3)C2)n1` [Compound 1, (S)-3-fluoro-5-(1-(3-((5-fluoro-2-(1-methyl-1H-pyrazol-5-yl)pyrimidin-4-yl)oxy)azetidine-1-carbonyl)-4,5-dihydro-1H-pyrazol-5-yl)benzonitrile], the EC50 fell in the range of 0.0001 to 0.1 µM. Turning to `Cc1nn(CC2CC2)c(C)c1-c1cc(OC2CN(C(=O)N3N=CC[C@H]3c3cc(F)cc(C#N)c3)C2)c(F)cn1` [Compound 57, (S)-3-(1-(3-((2-(1-(cyclopropylmethyl)-3,5-dimethyl-1H-pyrazol-4-yl)-5-fluoropyridin-4-yl)oxy)azetidine-1-carbonyl)-4,5-dihydro-1H-pyrazol-5-yl)-5-fluorobenzonitrile], the EC50 was in the range of 0.0001 to 0.1 µM. Then `Cc1ncc([C@@H]2CC=NN2C(=O)N2CC(Oc3cc(-c4c(C)cnn4C)ncc3F)C2)s1` [Compound 108, (S)-(3-((2-(1,4-dimethyl-1H-pyrazol-5-yl)-5-fluoropyridin-4-yl)oxy)azetidin-1-yl)(5-(2-methylthiazol-5-yl)-4,5-dihydro-1H-pyrazol-1-yl)methanone], with 0.0001 to 0.1 µM; and `Cc1cnc(C2CC=NN2C(=O)N2CC(Oc3nc(-c4ccnn4C)c(F)cc3F)C2)s1` (centres unmarked) [Compound 139, (3-((3,5-difluoro-6-(1-methyl-1H-pyrazol-5-yl)pyridin-2-yl)oxy)azetidin-1-yl)(5-(5-methylthiazol-2-yl)-4,5-dihydro-1H-pyrazol-1-yl)methanone], with 0.0001 to 0.1 µM. `Cc1ncc(C2CC=NN2C(=O)N2CC(Oc3cc(-c4c(C)cnn4C)ncc3F)C2)s1` (centres unmarked) [Compound 88, (3-((2-(1,4-dimethyl-1H-pyrazol-5-yl)-5-fluoropyridin-4-yl)oxy)azetidin-1-yl)(5-(2-methylthiazol-5-yl)-4,5-dihydro-1H-pyrazol-1-yl)methanone]: the EC50 was in the range of 0.0001 to 0.1 µM.

Consider `Cc1ncsc1-c1cc(OC2CN(C(=O)N3N=CC[C@H]3c3cc(F)cc(C#N)c3)C2)c(F)cn1` [Compound 18, (S)-3-fluoro-5-(1-(3-((5-fluoro-2-(4-methylthiazol-5-yl)pyridin-4-yl)oxy)azetidine-1-carbonyl)-4,5-dihydro-1H-pyrazol-5-yl)benzonitrile], for which the EC50 was in the range of 0.0001 to 0.1 µM.

Take `Cn1ncc(C#N)c1-c1cc(OC2CN(C(=O)N3N=CC[C@H]3c3cncc(F)c3)C2)c(F)cn1` [Compound 26, (S)-5-(5-fluoro-4-((1-(5-(5-fluoropyridin-3-yl)-4,5-dihydro-1H-pyrazole-1-carbonyl)azetidin-3-yl)oxy)pyridin-2-yl)-1-methyl-1H-pyrazole-4-carbonitrile]: the EC50 lay in the range of 0.0001 to 0.1 µM.

Regarding `COc1ncccc1-c1cc(OC2CN(C(=O)N3N=CC[C@H]3c3cc(F)cc(F)c3)C2)c(F)cn1` [Compound 164, (S)-(5-(3,5-difluorophenyl)-4,5-dihydro-1H-pyrazol-1-yl)(3-((5-fluoro-2′-methoxy-[2,3′-bipyridin]-4-yl)oxy)azetidin-1-yl)methanone], the EC50 fell in the range of 0.0001 to 0.1 µM. As for `Cc1c(C(N)=O)nn(C)c1-c1ccc(F)c(OC2CN(C(=O)N3N=CC[C@H]3c3cc(F)cc(C#N)c3)C2)n1` [Compound 59, (S)-5-(6-((1-(5-(3-cyano-5-fluorophenyl)-4,5-dihydro-1H-pyrazole-1-carbonyl)azetidin-3-yl)oxy)-5-fluoropyridin-2-yl)-1,4-dimethyl-1H-pyrazole-3-carboxamide], the EC50 lay within 0.0001 to 0.1 µM. Take `Cc1nscc1-c1cc(OC2CN(C(=O)N3N=CC[C@H]3c3cc(F)cc(C#N)c3)C2)c(F)cn1` [Compound 17, (S)-3-fluoro-5-(1-(3-((5-fluoro-2-(3-methylisothiazol-4-yl)pyridin-4-yl)oxy)azetidine-1-carbonyl)-4,5-dihydro-1H-pyrazol-5-yl)benzonitrile]: the EC50 was in the range of 0.0001 to 0.1 µM. Then `Cc1nn(-c2cc(OC3CN(C(=O)N4N=CC[C@H]4c4cccc(F)c4)C3)c(F)cn2)c(C)c1S(N)(=O)=O` [Compound 114, (S)-1-(5-fluoro-4-((1-(5-(3-fluorophenyl)-4,5-dihydro-1H-pyrazole-1-carbonyl)azetidin-3-yl)oxy)pyridin-2-yl)-3,5-dimethyl-1H-pyrazole-4-sulfonamide], with 0.0001 to 0.1 µM; and `Cc1c(N)nn(C)c1-c1cc(OC2CN(C(=O)N3N=CC[C@H]3c3cc(F)cc(C#N)c3)C2)c(F)cn1` [Compound 49, (S)-3-(1-(3-((2-(3-amino-1,4-dimethyl-1H-pyrazol-5-yl)-5-fluoropyridin-4-yl)oxy)azetidine-1-carbonyl)-4,5-dihydro-1H-pyrazol-5-yl)-5-fluoro benzonitrile], with 0.0001 to 0.1 µM.

As for `Cc1cnn(C)c1-c1cc(OC2CN(C(=O)N3N=CC[C@H]3c3cncc(F)c3)C2)c(F)cn1` [Compound 30, (S)-(3-((2-(1,4-dimethyl-1H-pyrazol-5-yl)-5-fluoropyridin-4-yl)oxy)azetidin-1-yl)(5-(5-fluoropyridin-3-yl)-4,5-dihydro-1H-pyrazol-1-yl)methanone], the EC50 lay within 0.0001 to 0.1 µM. Consider `Cc1cnn(C)c1-c1ncc(F)c(OC2CN(C(=O)N3N=CC[C@H]3c3cncc(F)c3)C2)n1` [Compound 24, (S)-(3-((2-(1,4-dimethyl-1H-pyrazol-5-yl)-5-fluoropyrimidin-4-yl)oxy)azetidin-1-yl)(5-(5-fluoropyridin-3-yl)-4,5-dihydro-1H-pyrazol-1-yl)methanone], for which the EC50 was 0.0001 to 0.1 µM.

Values taken from US20240294508A1, “RIP1 MODULATORS INCLUDING AZETIDINE CYCLIC UREAS, PREPARATIONS, AND USES THEREOF” (SIRONAX LTD., priority 2021, published 2024).
